Measured values as given in paper PMC2949283 (The Biochemical journal, 2009).

Assays:
[1] = target: Y72N/Y124Q/W286A HuAChE (Homo sapiens, UniProt P22303, W317A/Y103N/Y155Q); assay: HuAChE inhibition kinetics; assay type: biochemical
[2] = target: Wild Type HuAChE (Homo sapiens, UniProt P22303); assay: HuAChE inhibition kinetics; assay type: biochemical; conditions: Wild Type HuAChE
[3] = target: F295A/F338A HuAChE (Homo sapiens, UniProt P22303, F326A/F369A); assay: HuAChE inhibition kinetics; assay type: biochemical; conditions: F295A/F338A HuAChE
[4] = target: Y72N/Y124Q/W286A/ F295L/F297V/Y337A HuAChE (Homo sapiens, UniProt P22303, F326L/F328V/W317A/Y103N/Y155Q/Y368A); assay: HuAChE inhibition kinetics; assay type: biochemical; conditions: Y72N/Y124Q/W286A/F295L/F297V/Y337A HuAChE
[5] = target: HuBChE-Wild Type (Homo sapiens, UniProt P06276); assay: HuBChE inhibition kinetics; assay type: biochemical; conditions: HuBChE-Wild Type
[6] = target: F297A HuAChE (Homo sapiens, UniProt P22303, F328A); assay: HuAChE inhibition kinetics; assay type: biochemical; conditions: F297A HuAChE
[7] = target: Y124A HuAChE (Homo sapiens, UniProt P22303, Y155A); assay: HuAChE inhibition kinetics; assay type: biochemical
[8] = target: F295L/F297V/Y337A HuAChE (Homo sapiens, UniProt P22303, F326L/F328V/Y368A); assay: HuAChE inhibition kinetics; assay type: biochemical; conditions: F295L/F297V/Y337A HuAChE
[9] = target: Y337A HuAChE (Homo sapiens, UniProt P22303, Y368A); assay: HuAChE inhibition kinetics; assay type: biochemical; conditions: Y337A HuAChE
[10] = target: Y337F HuAChE (Homo sapiens, UniProt P22303, Y368F); assay: HuAChE inhibition kinetics; assay type: biochemical; conditions: Y337F HuAChE
[11] = target: W286A HuAChE (Homo sapiens, UniProt P22303, W317A); assay: HuAChE inhibition kinetics; assay type: biochemical; conditions: W286A HuAChE
[12] = target: E202Q HuAChE (Homo sapiens, UniProt P22303, E233Q); assay: HuAChE inhibition kinetics; assay type: biochemical; conditions: E202Q HuAChE
[13] = target: E202A HuAChE (Homo sapiens, UniProt P22303, E233A); assay: HuAChE inhibition kinetics; assay type: biochemical; conditions: E202A HuAChE
[14] = target: G122A HuAChE (Homo sapiens, UniProt P22303, G153A); assay: HuAChE inhibition kinetics; assay type: biochemical
[15] = target: W86A HuAChE (Homo sapiens, UniProt P22303, W117A); assay: HuAChE inhibition kinetics; assay type: biochemical; conditions: W86A HuAChE
[16] = target: Y341A HuAChE (Homo sapiens, UniProt P22303, Y372A); assay: HuAChE inhibition kinetics; assay type: biochemical; conditions: Y341A HuAChE
[17] = target: F295A/F338A/V407F HuAChE (Homo sapiens, UniProt P22303, F326A/F369A/V438F); assay: HuAChE inhibition kinetics; assay type: biochemical; conditions: F295A/F338A/V407F HuAChE
[18] = target: E450A HuAChE (Homo sapiens, UniProt P22303, E481A); assay: HuAChE inhibition kinetics; assay type: biochemical; conditions: E450A HuAChE
[19] = target: Y133F HuAChE (Homo sapiens, UniProt P22303, Y164F); assay: HuAChE inhibition kinetics; assay type: biochemical; conditions: Y133F HuAChE
[20] = target: Y133A HuAChE (Homo sapiens, UniProt P22303, Y164A); assay: HuAChE inhibition kinetics; assay type: biochemical; conditions: Y133A HuAChE
[21] = target: F295A HuAChE (Homo sapiens, UniProt P22303, F326A); assay: HuAChE inhibition kinetics; assay type: biochemical; conditions: F295A HuAChE
[22] = target: T1, D74N HuAChE (Homo sapiens, UniProt P22303, D105N); assay: HuAChE inhibition kinetics; assay type: biochemical; conditions: D74N HuAChE
[23] = target: W86F HuAChE (Homo sapiens, UniProt P22303, W117F); assay: HuAChE inhibition kinetics; assay type: biochemical; conditions: W86F HuAChE
[24] = target: F338A HuAChE (Homo sapiens, UniProt P22303, F369A); assay: HuAChE inhibition kinetics; assay type: biochemical; conditions: F338A HuAChE
[25] = target: T1, D74N HuAChE; conditions: D74N HuAChE vs wild type; cited from earlier work

Sequence of G122A HuAChE (P22303 32-614 G153A): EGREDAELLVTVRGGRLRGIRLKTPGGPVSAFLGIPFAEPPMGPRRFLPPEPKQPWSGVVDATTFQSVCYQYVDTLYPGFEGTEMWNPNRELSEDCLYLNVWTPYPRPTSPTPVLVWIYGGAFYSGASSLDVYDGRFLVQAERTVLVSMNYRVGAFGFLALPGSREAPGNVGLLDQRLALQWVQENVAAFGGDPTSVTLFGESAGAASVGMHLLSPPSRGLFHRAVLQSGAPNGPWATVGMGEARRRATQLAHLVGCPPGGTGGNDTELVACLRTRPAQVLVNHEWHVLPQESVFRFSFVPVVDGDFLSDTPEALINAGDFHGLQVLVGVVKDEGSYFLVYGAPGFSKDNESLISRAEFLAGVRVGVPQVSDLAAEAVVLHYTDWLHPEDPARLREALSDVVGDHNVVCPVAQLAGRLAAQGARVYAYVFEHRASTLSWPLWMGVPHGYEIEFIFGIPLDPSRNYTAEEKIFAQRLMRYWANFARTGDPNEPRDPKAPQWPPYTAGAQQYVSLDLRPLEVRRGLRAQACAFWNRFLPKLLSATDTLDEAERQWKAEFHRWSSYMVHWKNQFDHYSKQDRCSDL
Sequence of F295A/F338A HuAChE (P22303 32-614 F326A/F369A): as the sequence (P22303 32-614 G153A) above, with A122G, F295A, F338A counted along it
Sequence of W286A HuAChE (P22303 32-614 W317A): as the sequence (P22303 32-614 G153A) above, with A122G, W286A counted along it
Sequence of Y124A HuAChE (P22303 32-614 Y155A): as the sequence (P22303 32-614 G153A) above, with A122G, Y124A counted along it
T1 sequence (P22303 32-614 D105N): as the sequence (P22303 32-614 G153A) above, with D74N, A122G counted along it
Sequence of Y72N/Y124Q/W286A HuAChE (P22303 32-614 Y103N/Y155Q/W317A): as the sequence (P22303 32-614 G153A) above, with Y72N, A122G, Y124Q, W286A counted along it
Sequence of Y72N/Y124Q/W286A/ F295L/F297V/Y337A HuAChE (P22303 32-614 Y103N/Y155Q/W317A/F326L/F328V/Y368A): as the sequence (P22303 32-614 G153A) above, with Y72N, A122G, Y124Q, W286A, F295L, F297V, Y337A counted along it
Sequence of Y133A HuAChE (P22303 32-614 Y164A): as the sequence (P22303 32-614 G153A) above, with A122G, Y133A counted along it
Sequence of Y341A HuAChE (P22303 32-614 Y372A): as the sequence (P22303 32-614 G153A) above, with A122G, Y341A counted along it
Sequence of Wild Type HuAChE (P22303 32-614): as the sequence (P22303 32-614 G153A) above, with A122G counted along it
Sequence of F297A HuAChE (P22303 32-614 F328A): as the sequence (P22303 32-614 G153A) above, with A122G, F297A counted along it
Sequence of Y337F HuAChE (P22303 32-614 Y368F): as the sequence (P22303 32-614 G153A) above, with A122G, Y337F counted along it
Sequence of E202A HuAChE (P22303 32-614 E233A): as the sequence (P22303 32-614 G153A) above, with A122G, E202A counted along it
Sequence of F295A/F338A/V407F HuAChE (P22303 32-614 F326A/F369A/V438F): as the sequence (P22303 32-614 G153A) above, with A122G, F295A, F338A, V407F counted along it
Sequence of Y133F HuAChE (P22303 32-614 Y164F): as the sequence (P22303 32-614 G153A) above, with A122G, Y133F counted along it
Sequence of HuBChE-Wild Type (P06276 29-602): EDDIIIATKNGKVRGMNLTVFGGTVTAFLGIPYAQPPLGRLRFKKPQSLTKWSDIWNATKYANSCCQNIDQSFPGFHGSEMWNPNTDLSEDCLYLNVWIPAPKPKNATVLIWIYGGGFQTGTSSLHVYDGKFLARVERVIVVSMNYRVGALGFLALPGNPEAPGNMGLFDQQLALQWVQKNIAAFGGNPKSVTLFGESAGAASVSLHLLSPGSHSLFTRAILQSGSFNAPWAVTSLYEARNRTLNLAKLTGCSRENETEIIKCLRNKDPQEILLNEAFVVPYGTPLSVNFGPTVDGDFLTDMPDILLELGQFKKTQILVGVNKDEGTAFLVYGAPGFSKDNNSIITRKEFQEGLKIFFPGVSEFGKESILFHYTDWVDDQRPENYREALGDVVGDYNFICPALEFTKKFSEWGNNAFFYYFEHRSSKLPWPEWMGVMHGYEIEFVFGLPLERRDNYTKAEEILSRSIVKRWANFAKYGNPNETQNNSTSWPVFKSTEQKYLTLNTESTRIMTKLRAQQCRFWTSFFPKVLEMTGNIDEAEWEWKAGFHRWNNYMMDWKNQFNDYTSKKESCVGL
Sequence of F338A HuAChE (P22303 32-614 F369A): as the sequence (P22303 32-614 G153A) above, with A122G, F338A counted along it
Sequence of F295A HuAChE (P22303 32-614 F326A): as the sequence (P22303 32-614 G153A) above, with A122G, F295A counted along it
Sequence of E202Q HuAChE (P22303 32-614 E233Q): as the sequence (P22303 32-614 G153A) above, with A122G, E202Q counted along it
Sequence of E450A HuAChE (P22303 32-614 E481A): as the sequence (P22303 32-614 G153A) above, with A122G, E450A counted along it
Sequence of F295L/F297V/Y337A HuAChE (P22303 32-614 F326L/F328V/Y368A): as the sequence (P22303 32-614 G153A) above, with A122G, F295L, F297V, Y337A counted along it
Sequence of W86F HuAChE (P22303 32-614 W117F): as the sequence (P22303 32-614 G153A) above, with W86F, A122G counted along it
Sequence of W86A HuAChE (P22303 32-614 W117A): as the sequence (P22303 32-614 G153A) above, with W86A, A122G counted along it
Sequence of Y337A HuAChE (P22303 32-614 Y368A): as the sequence (P22303 32-614 G153A) above, with A122G, Y337A counted along it

With CN(C)C(=O)Oc1ccc[n+](C)c1 [Pyridostigmine, pyridostigmine bromide] the “k2, carbamylation rate constant” value [1] was 0.80 ± 0.07 min⁻¹, the “ki, bimolecular rate constant of carbamylation” value (from here on “ki, bimolecular rate constant”) [1] was 9.3±0.8 × 10^−4 M^−1min^−1 and the “k2, carbamylation rate constant” value [2] was 0.77 ± 0.3 min⁻¹. The “k2, carbamylation rate constant” value [3] was 0.5 ± 0.4 min⁻¹, the “ki, bimolecular rate constant” value [3] was 0.8±0.5 × 10^−4 M^−1min^−1 and the “k2, carbamylation rate constant” value [4] was 0.40 ± 0.1 min⁻¹. For the same compound, the “ki, bimolecular rate constant” value [4] was 0.6±0.1 × 10^−4 M^−1min^−1, the “k2, carbamylation rate constant” value [5] was 0.30 ± 0.03 min⁻¹ and the “k2, carbamylation rate constant” value [6] was 0.64 ± 0.1 min⁻¹. For the same compound, the “k2, carbamylation rate constant” value [7] was 0.1 ± 0.01 min⁻¹, the “ki, bimolecular rate constant” value [7] was 13.8±0.4 × 10^−4 M^−1min^−1 and the “k2, carbamylation rate constant” value [8] was 0.55 ± 0.09 min⁻¹. For the same compound, the “k2, carbamylation rate constant” value [9] was 0.80 ± 0.1 min⁻¹, the “k2, carbamylation rate constant” value [10] was 0.68 ± 0.2 min⁻¹ and the “k2, carbamylation rate constant” value [11] was 1.8 ± 0.5 min⁻¹. For the same compound, the “ki, bimolecular rate constant” value [11] was 14.0±0.6 × 10^−4 M^−1min^−1, the “k2, carbamylation rate constant” value [12] was 1.00 ± 0.2 min⁻¹ and the “k2, carbamylation rate constant” value [13] was 0.20 ± 0.05 min⁻¹. For the same compound, the “k2, carbamylation rate constant” value [14] was 0.12 ± 0.02 min⁻¹, the “ki, bimolecular rate constant” value [14] was 0.76±0.2 × 10^−4 M^−1min^−1 and the “k2, carbamylation rate constant” value [15] was 0.68 ± 0.2 min⁻¹. For the same compound, the “k2, carbamylation rate constant” value [16] was 1.0 ± 0.1 min⁻¹, the “k2, carbamylation rate constant” value [17] was 0.5 ± 0.15 min⁻¹ and the “k2, carbamylation rate constant” value [18] was 0.15 ± 0.02 min⁻¹. The “k2, carbamylation rate constant” value [19] was 0.20 ± 0.04 min⁻¹, the “k2, carbamylation rate constant” value [20] was 1.80 ± 0.3 min⁻¹ and the “k2, carbamylation rate constant” value [21] was 0.17 ± 0.02 min⁻¹. For the same compound, the “k2, carbamylation rate constant” value [22] was 1.0 ± 0.1 min⁻¹, the “k2, carbamylation rate constant” value [23] was 0.65 ± 0.2 min⁻¹ and the “k2, carbamylation rate constant” value [24] was 1.20 ± 0.4 min⁻¹.

For CC[N+](C)(C)c1cccc(O)c1 [edrophonium], the “increase of the dissociation constant” value [25] is listed as 5 fold.
